Assay results reported in PubChem BioAssay AID342 (DTP/NCI, 2004).
Several values for one entry are separate records, joined by “and”; a condition that tells them apart may be missing. Equal entries are not always repeated.

System: Swiss mice, Sarcoma 180 sc, mean tumor weight T/C
Experiment: NCI In Vivo Anticancer Drug Screen. Data for tumor model Sarcoma 180 (subcutaneous) in Swiss mice
Conditions: endpoint: mean tumor weight, higher = larger tumour
How it was run: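 Antitumor activity is assessed in mice with transplantable tumors. Treated (T) and vehicle control (C) groups are compared on survival or tumor size.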

[1] = dose: 111.0 mg/kg/injection, schedule: Q#A X014 (ip), vehicle: saline
[2] = dose: 166.5 mg/kg/injection, schedule: Q#A X014 (ip), vehicle: saline
[3] = dose: 250.0 mg/kg/injection, schedule: Q#A X014 (ip), vehicle: saline
[4] = dose: 333.0 mg/kg/injection, schedule: Q01DX007 (ip), vehicle: other
[5] = dose: 500.0 mg/kg/injection, schedule: Q01DX007 (ip), vehicle: other
[6] = dose: 62.5 mg/kg/injection, schedule: Q#A X014 (ip), vehicle: carboxymethylcellulose (CMC)
[7] = dose: 112.5 mg/kg/injection, schedule: Q01DX007 (ip), vehicle: carboxymethylcellulose (CMC)
[8] = dose: 125.0 mg/kg/injection, schedule: Q#A X014 (ip), vehicle: carboxymethylcellulose (CMC)
[9] = dose: 225.0 mg/kg/injection, schedule: Q01DX007 (ip), vehicle: carboxymethylcellulose (CMC)
[10] = dose: 250.0 mg/kg/injection, schedule: Q#A X014 (ip), vehicle: carboxymethylcellulose (CMC)
[11] = dose: 222.0 mg/kg/injection, schedule: Q01DX007 (ip), vehicle: other

Compound: CN(C)[C@@H]1C(=O)C(C(=O)NCNC2(C(=O)O)CCCC2)=C(O)[C@@]2(O)C(=O)C3=C(O)c4c(O)cccc4[C@@](C)(O)[C@H]3C[C@@H]12
- T/C (dose: 25.0 mg/kg/injection, schedule: Q01DX007 (ip), vehicle: saline): 103 % of control
- T/C (dose: 50.0 mg/kg/injection, schedule: Q01DX007 (ip), vehicle: saline): 67 % of control
- T/C (dose: 62.0 mg/kg/injection, schedule: Q01DX007 (ip), vehicle: saline): 103 % of control
- T/C (dose: 75.0 mg/kg/injection, schedule: Q01DX007 (ip), vehicle: saline): 41 % of control

Compound: CC(=O)Nc1c(Cl)c(Cl)c2c(c1Cl)Cc1cc(F)ccc1-2
- T/C (dose: 62.5 mg/kg/injection, schedule: Q01DX007 (ip), vehicle: saline): 78 % of control
- T/C (dose: 111.0 mg/kg/injection, schedule: Q01DX007 (ip), vehicle: other): 24 % of control
- T/C [1]: 31 % of control and 34 % of control
- T/C (dose: 125.0 mg/kg/injection, schedule: Q01DX007 (ip), vehicle: saline): 81 % of control
- T/C [2]: 28 % of control and 31 % of control
- T/C [3]: 18 % of control and 35 % of control
- T/C [4]: 36 % of control
- T/C (dose: 375.0 mg/kg/injection, schedule: Q#A X014 (ip), vehicle: saline): 21 % of control
- T/C [5]: 39 % of control
- T/C (dose: 750.0 mg/kg/injection, schedule: Q01DX007 (ip), vehicle: other): 32 % of control

Compound: CCOC(N)=O
- T/C [6]: 103 % of control
- T/C (dose: 85.38 mg/kg/injection, schedule: Q01DX007 (ip), vehicle: carboxymethylcellulose (CMC)): 56 % of control
- T/C [7]: 53 % of control
- T/C [8]: 85 % of control
- T/C (dose: 170.75 mg/kg/injection, schedule: Q01DX007 (ip), vehicle: carboxymethylcellulose (CMC)): 64 % of control
- T/C [9]: 42 % of control
- T/C (dose: 225.0 mg/kg/injection, schedule: Q#A X014 (ip), vehicle: carboxymethylcellulose (CMC)): 113 % of control
- T/C [10]: 77 % of control
- T/C (dose: 273.2 mg/kg/injection, schedule: Q01DX007 (ip), vehicle: carboxymethylcellulose (CMC)): 55 % of control
- T/C (dose: 300.0 mg/kg/injection, schedule: Q#A X014 (ip), vehicle: carboxymethylcellulose (CMC)): 73 % of control
- T/C (dose: 316.0 mg/kg/injection, schedule: Q01DX007 (ip), vehicle: carboxymethylcellulose (CMC)): 67 % of control
- T/C (dose: 341.5 mg/kg/injection, schedule: Q01DX007 (ip), vehicle: carboxymethylcellulose (CMC)): 37 % of control and 46 % of control
- T/C (dose: 395.0 mg/kg/injection, schedule: Q01DX007 (ip), vehicle: carboxymethylcellulose (CMC)): 54 % of control
- T/C (dose: 450.0 mg/kg/injection, schedule: Q01DX007 (ip), vehicle: carboxymethylcellulose (CMC)): 53 % of control
- T/C (dose: 455.33 mg/kg/injection, schedule: Q01DX007 (ip), vehicle: carboxymethylcellulose (CMC)): 62 % of control
- T/C (dose: 500.0 mg/kg/injection, schedule: Q#A X014 (ip), vehicle: carboxymethylcellulose (CMC)): 24 % of control
- T/C (dose: 526.6 mg/kg/injection, schedule: Q01DX007 (ip), vehicle: carboxymethylcellulose (CMC)): 40 % of control
- T/C (dose: 683.0 mg/kg/injection, schedule: Q01DX007 (ip), vehicle: carboxymethylcellulose (CMC)): 21 % of control and 44 % of control
- T/C (dose: 900.0 mg/kg/injection, schedule: Q01DX007 (ip), vehicle: carboxymethylcellulose (CMC)): 23 % of control

Compound: CC(=O)Nc1cc2c(cc1Br)-c1ccc(F)cc1C2
- T/C [11]: 56 % of control
- T/C [4]: 44 % of control
- T/C [5]: 22 % of control

Compound: CC(C)CN(C)/N=N/c1nc[nH]c1C(N)=O
- T/C (dose: 25.0 mg/kg/injection, schedule: Q01DX007 (ip), vehicle: carboxymethylcellulose (CMC)): 92 % of control
- T/C (dose: 50.0 mg/kg/injection, schedule: Q01DX007 (ip), vehicle: carboxymethylcellulose (CMC)): 41 % of control

Compound: C=CC1CN2CCC1CC2C(O)c1ccnc2ccc(OC)cc12 (stereo not given)
- T/C (dose: 30.16 mg/kg/injection, schedule: Q01DX007 (ip), vehicle: other): 96 % of control
- T/C (dose: 31.25 mg/kg/injection, schedule: Q#A X014 (ip), vehicle: carboxymethylcellulose (CMC)): 101 % of control
- T/C (dose: 47.12 mg/kg/injection, schedule: Q01DX007 (ip), vehicle: carboxymethylcellulose (CMC)): 92 % of control
- T/C (dose: 56.25 mg/kg/injection, schedule: Q01DX007 (ip), vehicle: carboxymethylcellulose (CMC)): 89 % of control
- T/C (dose: 60.32 mg/kg/injection, schedule: Q01DX007 (ip), vehicle: other): 75 % of control
- T/C [6]: 120 % of control
- T/C (dose: 94.25 mg/kg/injection, schedule: Q01DX007 (ip), vehicle: carboxymethylcellulose (CMC)): 93 % of control
- T/C [7]: 80 % of control
- T/C (dose: 120.65 mg/kg/injection, schedule: Q01DX007 (ip), vehicle: other): 99 % of control
- T/C [8]: 121 % of control
- T/C (dose: 188.5 mg/kg/injection, schedule: Q01DX007 (ip), vehicle: carboxymethylcellulose (CMC)): 78 % of control
- T/C [9]: 118 % of control
- T/C (dose: 241.3 mg/kg/injection, schedule: Q01DX007 (ip), vehicle: other): 97 % of control
- T/C [10]: 50 % of control

Compound: CN(CC(=O)O)C(=N)N
- T/C (dose: 1500.0 mg/kg/injection, schedule: Q#A X014 (ip), vehicle: water): 92 % of control
- T/C (dose: 2500.0 mg/kg/injection, schedule: Q#A X014 (ip), vehicle: water): 74 % of control

Compound: O=C(O)CCc1c[nH]c2ccc(N(CCCl)CCCl)cc12
- T/C (dose: 2.0 mg/kg/injection, schedule: Q01DX007 (ip), vehicle: carboxymethylcellulose (CMC)): 47 % of control
- T/C (dose: 4.0 mg/kg/injection, schedule: Q01DX007 (ip), vehicle: carboxymethylcellulose (CMC)): 32 % of control

Compound: NNc1nncc2ccccc12
- T/C (dose: 37.5 mg/kg/injection, schedule: Q01DX007 (ip), vehicle: carboxymethylcellulose (CMC)): 116 % of control
- T/C (dose: 75.0 mg/kg/injection, schedule: Q01DX007 (ip), vehicle: carboxymethylcellulose (CMC)): 100 % of control

Compound: Cn1c(=O)c2[nH]cnc2n(C)c1=O
- T/C (dose: 20.43 mg/kg/injection, schedule: Q01DX007 (ip), vehicle: carboxymethylcellulose (CMC)): 75 % of control
- T/C (dose: 40.87 mg/kg/injection, schedule: Q01DX007 (ip), vehicle: carboxymethylcellulose (CMC)): 103 % of control
- T/C (dose: 81.75 mg/kg/injection, schedule: Q01DX007 (ip), vehicle: carboxymethylcellulose (CMC)): 70 % of control
- T/C (dose: 163.5 mg/kg/injection, schedule: Q01DX007 (ip), vehicle: carboxymethylcellulose (CMC)): 113 % of control

Compound: Nc1c(Br)cc2c(c1Br)Cc1cc([N+](=O)[O-])ccc1-2
- T/C (dose: 74.0 mg/kg/injection, schedule: Q01DX007 (ip), vehicle: other): 77 % of control
- T/C [1]: 27 % of control
- T/C (dose: 148.0 mg/kg/injection, schedule: Q01DX007 (ip), vehicle: carboxymethylcellulose (CMC)): 92 % of control
- T/C (dose: 148.0 mg/kg/injection, schedule: Q01DX007 (ip), vehicle: other): 96 % of control
- T/C (dose: 148.0 mg/kg/injection, schedule: Q01DX007 (ip), vehicle: saline): 56 % of control
- T/C [2]: 21 % of control
- T/C [11]: 42 % of control
- T/C (dose: 222.0 mg/kg/injection, schedule: Q01DX007 (ip), vehicle: saline): 64 % of control
- T/C [3]: 21 % of control
- T/C [4]: 40 % of control
- T/C (dose: 333.0 mg/kg/injection, schedule: Q01DX007 (ip), vehicle: saline): 67 % of control
- T/C (dose: 500.0 mg/kg/injection, schedule: Q01DX007 (ip), vehicle: saline): 54 % of control

Compound: CCCCNP(=O)(N1CC1)N1CC1
- T/C (dose: 0.15 mg/kg/injection, schedule: Q#A X014 (ip), vehicle: saline): 18 % of control
- T/C (dose: 0.25 mg/kg/injection, schedule: Q#A X014 (ip), vehicle: saline): 7 % of control

Compound: O=C(O)c1ccccc1C(=O)OCc1ccccc1
- T/C (dose: 500.0 mg/kg/injection, schedule: Q01DX007 (ip), vehicle: carboxymethylcellulose (CMC)): 72 % of control

Compound: CC1=C(/C=C/C(C)=N/NC(N)=S)C(C)(C)CCC1
- T/C (dose: 20.0 mg/kg/injection, schedule: Q01DX007 (ip), vehicle: other): 48 % of control and 66 % of control

Compound: Nc1c(Br)cc2c(c1Br)Cc1cc(Cl)ccc1-2
- T/C (dose: 27.0 mg/kg/injection, schedule: Q01DX007 (ip), vehicle: other): 52 % of control
- T/C (dose: 41.0 mg/kg/injection, schedule: Q01DX007 (ip), vehicle: other): 44 % of control
- T/C (dose: 62.0 mg/kg/injection, schedule: Q01DX007 (ip), vehicle: other): 60 % of control

Compound: Cc1cc2nc3c(=O)[nH]c(=O)nc-3n(CCOC(=O)CCC(=O)O)c2cc1C
- T/C (dose: 14.37 mg/kg/injection, schedule: Q#A X014 (ip), vehicle: carboxymethylcellulose (CMC)): 109 % of control
- T/C (dose: 28.75 mg/kg/injection, schedule: Q#A X014 (ip), vehicle: carboxymethylcellulose (CMC)): 122 % of control
- T/C (dose: 57.5 mg/kg/injection, schedule: Q#A X014 (ip), vehicle: carboxymethylcellulose (CMC)): 87 % of control
- T/C (dose: 115.0 mg/kg/injection, schedule: Q#A X014 (ip), vehicle: carboxymethylcellulose (CMC)): 56 % of control
